Assay results taken from patent publication US20190046556A1, “Methods and Pharmaceutical Compositions for the Prophylactic Treatment of Peritoneal Carcinomatosis” (INSERM (Institut National de la Sante et de la Recherche …, priority 2016, published 2019).

Tested on: OVCAR
Assay type: in vivo
Settings: 21 days, nude mice
Description: For that experiment, a human ovarian cancer cell line, named OVCAR is used, as prior exposed for the CT-26 cells. The only difference is the mice receiving cell injection, because OVACR is a human cancer cell, a nude mice animal is used because of immune deficiency of the animal.

O=C1[O][Pt]2([NH][C@@H]3CCCC[C@H]3[NH]2)[O]C1=O [Oxaliplatin]
Mean PCI (peritoneal cancer index): 3,7
